In the case of `CCOc1cc(C#N)ccc1O`, the logP is reported as 1.36. `CCOc1ccc(C#N)cc1` gave a logP of 2.03. For `CCOc1ccc(C#N)cc1OC`, the logP was 2.06. With `COc1cc(C#N)ccc1O` the logP was 0.82. `N#Cc1ccc(Cl)c(Cl)c1` showed a logP of 2.98. In the case of `COc1ccc(C(C#N)C(C)C)cc1` (configuration not stated), the logP is reported as 2.68. With `CCOc1ccc(C#N)cc1[N+](=O)[O-]` the logP was 1.77. In the case of `CCOc1ccc(C#N)cc1Br`, the logP is reported as 2.99. `COc1ccc(C#N)cc1OC` showed a logP of 1.42. Work on `COc1ccc(C#N)cc1Br` yielded a logP of 2.35. Compound `CC(C)C(C#N)c1ccc([N+](=O)[O-])cc1` (configuration not stated) has a logP of 2.63. `CC(C)C(C#N)c1ccccc1` (configuration not stated) showed a logP of 2.89. `COc1ccc(C#N)cc1[N+](=O)[O-]` gave a logP of 1.23. `N#Cc1cccc([N+](=O)[O-])c1` gave a logP of 1.3. Compound `COc1ccc(C#N)cc1` has a logP of 1.49. For `N#Cc1ccc(O)c(Br)c1`, the logP was 1.75. With `N#Cc1ccc(Br)cc1` the logP was 2.42.
